Results on 45 molecules are retold here after patent publication US6362336B1, “Chemical compounds” (Zeneca Limited, priority 1995, dated 2002).

The molecule `COc1cc2c(Nc3ccc(C)c(O)c3)ncnc2cc1OCc1ccncc1.Cl` showed a melting point of 249 to 251 °C. In turn, `COc1cc2c(Nc3ccc(C)c(O)c3)ncnc2cc1OCc1c(C)noc1C.Cl` displayed a melting point of 252 to 254 °C. `COc1cc2c(Nc3ccc(C)c(O)c3)ncnc2cc1OCCCc1ccncc1.Cl` came in with a melting point of 278 to 282 °C.

In turn, `COc1cc2c(Nc3cc(O)c(C)cc3F)ncnc2cc1OCCCc1ccncc1.Cl` showed a melting point of 246 to 248 °C. `COc1cc2c(Nc3cc(O)c(C)cc3F)ncnc2cc1OCc1ccncc1.Cl`: the melting point was in the range of 257 to 260 °C. `COc1cc2c(Nc3cc(O)c(C)cc3F)ncnc2cc1OCc1ccccc1.Cl` yielded a melting point of 294 to 298 °C.

`COc1cc2c(Nc3ccc(Cl)cc3F)ncnc2cc1OCc1csc(C)n1.Cl` had a melting point of 220 to 225 °C. With `COc1cc2c(Nc3cc(O)c(C)cc3F)ncnc2cc1OCCn1ccnc1.Cl`, the melting point lay within 195 to 220 °C.

As to `COc1cc2c(Nc3cc(O)c(C)cc3F)ncnc2cc1OCc1ccc(C#N)cc1.Cl`, the melting point lay within 265 to 270 °C.

Turning to `COc1cc2c(Nc3ccc(Cl)cc3F)ncnc2cc1OCCc1ccncc1.Cl`, the melting point fell in the range of 189 to 191 °C. `COc1cc2c(Nc3ccc(Cl)cc3F)ncnc2cc1OCc1cccnc1.Cl` displayed a melting point of 216 to 221 °C. On to `COc1cc2c(Nc3ccc(C)c(O)c3)ncnc2cc1OCc1ccccn1.Cl`, for which the melting point was in the range of 236 to 238 °C. In turn, `COc1cc2c(Nc3ccc(Cl)cc3F)ncnc2cc1OCCc1nccn1C.Cl` displayed a melting point of 224 to 229 °C. Regarding `COc1cc2c(Nc3ccc(Cl)cc3F)ncnc2cc1OCc1ccncn1.Cl`, the melting point was 237 to 239 °C. For the molecule `COc1cc2c(Nc3ccc(Cl)cc3F)ncnc2cc1OCCCN(C)c1ccncc1.Cl`, the melting point is 243 to 248 °C.

`COc1cc2c(Nc3ccc(Cl)cc3F)ncnc2cc1OCCN(C)c1ncccn1.Cl`: the melting point was 194 to 196 °C. In the case of `COc1cc2c(Nc3cc(O)c(C)cc3F)ncnc2cc1OCc1ccnc(Cl)c1.Cl` it was 245 to 250 °C; in that of `COc1cc2c(Nc3ccc(C)c(O)c3)ncnc2cc1OCc1nccn1C.Cl`, 257 to 260 °C. With `COc1cc2c(Nc3ccc(Cl)cc3F)ncnc2cc1OCc1cc(Cl)[nH]c(=O)c1.Cl`, the melting point was 271 to 273 °C (dec.).

In the case of `COc1cc2c(Nc3ccc(C)c(O)c3)ncnc2cc1OCc1csc(C)n1.Cl`, the melting point fell in the range of 243 to 245 °C.

In the case of `Cl.Oc1cc(Nc2ncnc3cc(OCc4ccccc4)ccc23)c(F)cc1Cl`, the melting point was in the range of 253 to 257 °C. The molecule `COc1cc2c(Nc3cc(O)c(Cl)cc3F)ncnc2cc1OCc1ccsc1.Cl` gave a melting point of 277 to 281 °C. In the case of `COc1cc2c(Nc3ccc(C)c(O)c3)ncnc2cc1OCc1ccsc1.Cl` it was 246 to 248 °C; in that of `COc1cc2c(Nc3ccc(Cl)cc3F)ncnc2cc1OCc1csc(NC(C)=O)n1.Cl`, 194 to 202 °C; in that of `COc1cc2c(Nc3ccc(C)c(O)c3)ncnc2cc1OCc1csc(NC(C)=O)n1.Cl`, 202 to 204 °C.

Molecule `COc1cc2c(Nc3ccc(Cl)cc3F)ncnc2cc1OCc1ccnc(N(C)C)c1.Cl` returned a melting point of 290 °C. Regarding `COc1cc2c(Nc3ccc(C)c(OC(C)=O)c3)ncnc2cc1OCc1cccnc1` [Example 2, 4-(3-acetoxy-4-methylanilino)-6-methoxy-7-(3-pyridylmethoxy)quinazoline], the melting point lay in the range of 113 to 115 °C. Turning to `COc1cc2c(Nc3ccc(C)c(O)c3)ncnc2cc1OCc1cccnc1` [Example 3, 4-(3-hydroxy-4-methylanilino)-6-methoxy-7-(3-pyridylmethoxy)quinazoline], the melting point is 258 to 259 °C.

As for `COc1cc2c(Nc3ccc(C)c(O)c3)ncnc2cc1OCc1ccncn1` [Example 5, 4-(3-hydroxy-4-methylanilino)-6-methoxy-7-(pyrimidin-4-ylmethoxy)quinazoline], the melting point was 290 to 291 °C.

On to `COc1cc2c(Nc3ccc(Cl)cc3F)ncnc2cc1OCCOc1ccncc1` [Example 17, 4-(4-chloro-2-fluoroanilino)-6-methoxy-7-(2-(4-pyridyloxy)ethoxy)quinazoline], for which the melting point lay within 200 to 202 °C. Turning to `COc1cc2c(Nc3ccc(Cl)cc3F)ncnc2cc1OCCn1ccccc1=O` [Example 18, 4-(4-chloro-2-fluoroanilino)-6-methoxy-7-[2-(2-oxo-1,2-dihydro-1-pyridyl)ethoxy]quinazoline], the melting point fell in the range of 209 to 211 °C. `COc1cc2c(Nc3ccc(Cl)cc3F)ncnc2cc1OCCCn1ccc(=O)cc1` [Example 19, 4-(4-chloro-2-fluoroanilino)-6-methoxy-7-[3-(4-oxo-1,4-dihydro-1-pyridyl)propoxy]quinazoline] showed a melting point of more than 250 °C. In the case of `COc1cc2c(Nc3ccc(Cl)cc3F)ncnc2cc1OCc1ccccn1` [Example 39, 4-(4-chloro-2-fluoroanilino)-6-methoxy-7-((2-pyridyl)methoxy)quinazoline] it was 215 to 218 °C; in that of `COc1cc2c(Oc3ccc(Cl)cc3F)ncnc2cc1OCc1ccncc1` [Example 44, 4-(4-chloro-2-fluorophenoxy)-6-methoxy-7-((4-pyridyl)methoxy)quinazoline], 197 to 198 °C; in that of `COc1cc2c(Nc3ccc(Cl)cc3F)ncnc2cc1OCCN(C)c1cc(C)nc(C)c1` [Example 46, 4-(4-chloro-2-fluoroanilino)-7-(2-(N-(2,6-dimethyl-4-pyridyl)-N-methylamino)ethoxy)-6-methoxyquinazoline], 208 to 212 °C. Molecule `COc1cc2c(Nc3ccc(Cl)cc3F)ncnc2cc1OCc1ccnc(Br)c1` [Example 59, 7-((2-bromo-4-pyridyl)methoxy)-4-(4-chloro-2-fluoroanilino)-6-methoxyquinazoline] had a melting point of 210 to 212 °C.

Molecule `COc1cc2c(Nc3ccc(Cl)cc3F)ncnc2cc1OCc1ccnc(C#N)c1` [Example 60, 4-(4-chloro-2-fluoroanilino)-7-((2-cyano-4-pyridyl)methoxy)-6-methoxyquinazoline] showed a melting point of 209 to 213 °C. In the case of `COc1cc(COc2cc3ncnc(Nc4ccc(Cl)cc4F)c3cc2OC)ccn1` [Example 62, 4-(4-chloro-2-fluoroanilino)-7-((2-methoxy-4-pyridyl)methoxy)-6-methoxyquinazoline] it was 202 to 204 °C; in that of `COc1cc2c(Nc3ccc(Cl)cc3F)ncnc2cc1OCc1ccnc(C)c1` [Example 63, 4-(4-chloro-2-fluoroanilino)-6-methoxy-7-((2-methyl-4-pyridyl)methoxy)quinazoline], 221 to 224 °C; in that of `COc1cc2c(Nc3ccc(Cl)cc3F)ncnc2cc1OCCCn1ccccc1=O` [Example 65, 4-(4-chloro-2-fluoroanilino)-6-methoxy-7-(3-(2-oxo-1,2-dihydro-1-pyridyl)propoxy)quinazoline], 216 to 218 °C. `COc1cc2c(Nc3ccc(Cl)cc3F)ncnc2cc1OCCCSc1nccn1C` [Example 66, 4-(4-chloro-2-fluoroanilino)-6-methoxy-7-(3-(1-methylimidazol-2-ylthio)propoxy)quinazoline]: the melting point was 199 to 201 °C.

`COc1cc2c(Nc3ccc(Cl)cc3F)ncnc2cc1OCCCOc1ccncc1` [Example 67, 4-(4-chloro-2-fluoroanilino)-6-methoxy-7-(3-(4-pyridyloxy)propoxy)quinazoline] registered a melting point of 138 to 140 °C.

The molecule `COc1cc2c(Nc3ccc(Cl)cc3F)ncnc2cc1OCCSc1ccncc1` [Example 68, 4-(4-chloro-2-fluoroanilino)-6-methoxy-7-(2-(4-pyridylthio)ethoxy)quinazoline] gave a melting point of 182 to 186 °C. In the case of `COc1cc2c(Nc3ccc(Cl)cc3F)ncnc2cc1OCCOc1cccnc1` [Example 69, 4-(4-chloro-2-fluoroanilino)-6-methoxy-7-(2-(3-pyridyloxy)ethoxy)quinazoline] it was 188 to 190 °C; in that of `CCOC(=O)c1cc(COc2cc3ncnc(Nc4ccc(Cl)cc4F)c3cc2OC)ccn1` [Example 93, 4-(4-chloro-2-fluoroanilino)-7-(2-ethoxycarbonylpyrid-4-yl)methoxy-6-methoxyquinazoline], 212 to 214 °C.

Broadly, the melting point is the temperature of the solid-liquid transition.
